Reference: patent publication US20190160035A1, “METHOD OF TREATMENT” (QBIOTICS LIMITED, priority 2016, published 2019)
“And” between values parts separate entries of the source, which are not always exact repeats. Equal entries are not always repeated.

Key:
[1] = tested on: cutaneous MCT or subcutaneous MCT; test: Example 1: RECIST v.1.1 tumor response after a single intratumoral Compound 1 injection (0.4 mL/cm^3 of tumor) with prophylactic and supportive medications; format: in vivo, Canis lupus familiaris (dog)
Source text: Study dogs were managed similarly and with due regard for their welfare. Animals were enrolled in the study in accordance with instructions provided in Australian Pesticides and Veterinary Medicines Authority (APVMA) small-scale trials permit PER7250 (unregistered drug use). All animals were client-owned, treated by Australian registered veterinarians, and cases managed under their direct supervision. An enrolled dog could be removed from the study prior to study completion under the following circumstances: • 1. If at any time during the study, in the opinion of the attending veterinarian, the dog's welfare is at risk due to non-response of the tumor to Compound 1 treatment or due to a serious adverse event, the veterinarian could elect to withdraw the dog from the study. Following withdrawal, the dog's attending veterinarian could then administer supportive treatment and veterinary care that they deem is appropriate and in the best interest of the animal. • 2. The owner elected to voluntarily withdraw the dog from the study.
Dogs were selected for the study if they met the criteria in Table 1 below.
Compound 1 was prepared for intratumoral injection by preparation of a composition comprising 1 mg/mL Compound 1 in a 40% propylene glycol solution with 30 mM acetate buffer, pH 4.2. The dosage level was 0.4 mL/cm^3 of tumor.
The drug was administered to each dog as 0.4 mL per cm^3 of tumor volume (40% v/v tumor) as determined on the day of dosing (Day 0). Tumor volume was determined using the modified ellipsoidal calculation=½×length×width×depth (cm) (Monga et al, 2000; Celikoglu et al, 2008).
Wherever possible, the tumor and a 2 cm border surrounding the tumor was shaved prior to treatment. To deliver the drug, the needle of the dosing syringe was inserted into the tumor at the injection point and moved in a radial manner in 2- and 3-dimensions. Treatment administration was recorded on the individual “Case Report Form”. Study dogs were clinically examined at 2-4 and 24 hours, and 7 (±2), 14 (±2) and 28 (±2) days post-treatment (and unscheduled visits at attending veterinarian discretion).
Each supervising veterinarian was given latitude to provide and record prophylactic and supportive medications as deemed appropriate for managing potential paraneoplastic events and tumor site necrosis following treatment with Compound 1. […]
Determination of efficacy was based on objective tumor measurements made according to the Response Evaluation Criteria in Solid Tumors (RECIST) v.1.1 guideline (Eisenhauer et al, 2009) using the longest unidirectional tumor measurement (diameter). […] Measurements were recorded using digital calipers at pre-treatment and at 7(±2), 14(±2) and 28(±2) days post treatment. […]

[2] = tested on: MCT (cutaneous and subcutaneous); test: Example 5: Compound 1 injection with oral prednisolone and antihistamine co-therapy, RECIST v.1.1 tumor response; format: in vivo, Canis lupus familiaris (dog)
Source text: This study investigates the efficacy and safety of Compound 1 injection for MCT treatment in the presence of corticosteroids administered under defined clinical situations.
Dogs were selected for the study if they met the criteria in Table 1 (Example 1) but where the dog has at least one MCT.
Wherever possible, the tumor and a 2 cm border surrounding the tumor was shaved prior to treatment. To deliver the drug, the needle of the dosing syringe was inserted into the tumor at the injection point and moved in a radial manner in 2- and 3-dimensions with drug delivered to the tumor mass. Study dogs were clinically examined at 2-4 and 24 hours, and 7 (+2), 14 (+2) and 28 (+2) days post-treatment (and unscheduled visits at attending veterinarian discretion).
Each supervising veterinarian was given latitude to provide and record prophylactic and supportive medications as deemed appropriate for managing potential paraneoplastic events and tumor site necrosis following Compound 1 treatment. However, prednisolone and antihistamines were used as co-therapy. Prednisolone therapy commenced on Day −1 and continued for a further 7 days. H1 and H2 antihistamine therapy (chlorpheniramine and famotidine respectively) commenced on the morning of drug treatment and continued for a further 6 days (see Table 23).
RECIST v.1.1 results are summarised in Table 28 which also includes a measure of neoadjuvant prednisolone action (potential tumor shrinkage) between screening and immediate pre-treatment tumor evaluation. Sixteen (16) dogs and eighteen (18) tumors were treated. Raw data for RECIST assessment was collected on Day 0 (immediately pre-treatment) and on Day 28 for fifteen (15) cases. […] With the remaining three (3) cases (C05-T-18, C05-V-01, and C05-V-02), the dogs were not available on Day 28 for RECIST assessment. For dog C05-T-18, the injection site was measured as CR on Days 21 and 37. […] For dog C05-V-01, the injection site was measured as PR on Days 21 and 37 (55% and 60% RECIST reduction respectively). […] For dog […], due to the progressive nature of disease, the animal was removed from study on Day 21.

[3] = tested on: cutaneous MCT or subcutaneous MCT; test: Example 4: long term follow up of Example 1 dogs for tumor recurrence; format: in vivo; for Tumor recurrence at case follow-up, approx. month 2 after last treatment: key: NTR = no tumor recurrence; TR = tumor recurrence; for Tumor recurrence at case follow-up, approx. month 3 after last treatment: key: NTR = no tumor recurrence; TR = tumor recurrence; for Tumor recurrence at case follow-up, approx. month 4 after last treatment: key: NTR = no tumor recurrence; TR = tumor recurrence; for Tumor recurrence at case follow-up, approx. month 5 after last treatment: key: NTR = no tumor recurrence; TR = tumor recurrence
Experimental: The dogs of in Example 1, treated with 1.0 mg Compound 1 per mL in 40% propylene glycol solution (0.4 mL/cm^3 tumor), were followed up post-treatment.
The attending veterinarian advised dog C03-T-04 enter a new treatment program for residual tissue mass treatment due to a putative immune deficiency, and dog C03-T-07 died on Day 4 post treatment.

## C/C=C(\C)C(=O)O[C@@H]1[C@@H](C)[C@@]2(O)[C@H]([C@@H]3C(C)(C)[C@]13OC(=O)[C@@H](C)CC)[C@@H]1O[C@]1(CO)[C@@H](O)[C@]1(O)C(=O)C(C)=C[C@H]12 [Compound 1, 12-tigloyl-13-(2-methylbutanoyl)-6,7-epoxy-4,5,9,12,13,20-hexahydroxy-1-tigliaen-3-one]
[1]; Day 28, 11 dogs available of 12 treated
  Number of dogs with partial response (PR): 3
[1]; Day 28, 11 dogs available of 12 treated, 1.0 mg/mL, 0.4 mL/cm^3
  Number of dogs with complete response (CR): 6
[1]; dog C03-T-07, Day 4, personal correspondence with attending veterinarian
  Tumor cytology in the autopsied injection site: no tumor cytology was identified
[1]; one value per dog, Day 28, single intratumoral dose, 1.0 mg/mL, 0.4 mL/cm^3 tumor
  RECIST classification: PR (partial response (PR, at least 30% decrease in the longest diameter of target lesion))
[2]; 14 out of 18 cases
  Share of cases with a CR RECIST result: 78%
[2]; Day 28, 15 cases assessed
  Number of cases with progressive disease (PD): 1
[2]; Day 28, 15 cases assessed, prednisolone, chlorpheniramine, famotidine co-therapy
  Number of cases with complete response (CR): 13
[2]; dog C05-T-09, Patnaik Grade III cutaneous MCT
  Tumor course beyond Day 7 post treatment: continued to grow
[2]; dog C05-V-01, Day 21
  RECIST reduction: 55%
[2]; dog C05-V-01, Day 37
  RECIST reduction: 60%
[2]; dog C05-V-01, Day 57
  RECIST reduction of residual mass: 70%
[2]; dog C05-V-01, Days 21 and 37
  RECIST result of injection site: PR (partial response (PR, at least 30% decrease in the longest diameter of target lesion))
[2]; dog C05-V-02, vulvar Patnaik Grade III MCT
  Residual tumor after initial tumor reduction: residual tumor mass was evident by Day 21
[2]; of 18 cases enrolled
  Number of cases with partial response (PR): 1
  Number of cases with progressive disease: 2
[2]; out of eighteen (18) treated cases
  Number of cases with a CR RECIST result: 14
[3]; 196: dog C03-N-01 (approx. 6 months), 359: dog C03-T-02 (approx. 12 months)
  Time post treatment at which tumor recurrence was identified: 196 days and 359 days
[3]; dog C03-T-06, approx. 8 months, until euthanased for diabetes and kidney failure
  Time the dog remained tumor free post treatment: 265 days
[3]; dogs C03-N-03, C03-T-01, C03-T-03
  Number of dogs with residual tumor mass on Days 28-29 post treatment (retreated): 3
[3]; dogs C03-N-03, C03-T-01, C03-T-03, examined out to 389, 339 and 346 days
  Tumor recurrence post-repeat treatment: None of these dogs exhibited tumor recurrence
[3]; of ten dogs available for follow up
  Number of dogs treated successfully with a single treatment and no tumor recurrence within the duration of assessment: 5
[3]; one value per dog
  Tumor recurrence at case follow-up, approx. month 1 after last treatment: NTR (3×) and TR (TR = tumor recurrence)
  Tumor recurrence at case follow-up, approx. month 2 after last treatment: NTR
  Tumor recurrence at case follow-up, approx. month 3 after last treatment: NTR
  Tumor recurrence at case follow-up, approx. month 4 after last treatment: NTR
  Tumor recurrence at case follow-up, approx. month 5 after last treatment: NTR
  Tumor recurrence at case follow-up, approx. month 6 after last treatment: NTR
  Tumor recurrence at case follow-up, approx. month 7 after last treatment: NTR
  Tumor recurrence at case follow-up, approx. month 9 after last treatment: NTR
  Tumor recurrence at case follow-up, approx. month 11 after last treatment: NTR
  Tumor recurrence at case follow-up, approx. month 12 after last treatment: TR (TR = tumor recurrence) and NTR (4×)
[3]; one value per dog, Example 1 dogs
  Repeat treatment required: Day 28 (2×) and Nil (7×) and Day 29
